Earlier results as cited in patent US7094421B2, “Plaster containing 4-biphenylacetic acid” (Teikoku Seiyaki Co., Ltd., priority 2000, dated 2006).

Settings: solvent crotamiton

solubility of 4-biphenylacetic acid in crotamiton: about 7%
Compound: O=C(O)Cc1ccc(-c2ccccc2)cc1 [4-biphenylacetic acid]
